Values after ≈ are worked out from the molar mass of the structure shown. Read-outs that look alike come from different tables or passages of the source.
Tests used:
Klebsiella pneumoniae = assay: antimicrobial spectrum, agar dilution MIC; assay type: cell-based; conditions: strain 8045, BHI agar, 20-24 hours
Lactobacillus Casei = assay: antimicrobial spectrum, agar dilution MIC; assay type: cell-based; conditions: Lacticaseibacillus casei, ATCC7469, strain ATCC 7469; BHI agar, 20-24 hours
Strep. pyogenes = assay: antimicrobial spectrum, agar dilution MIC; assay type: cell-based; conditions: Streptococcus pyogenes, BHI agar, 20-24 hours
Experimental: (§1) Twelve petri dishes containing successive aqueous dilutions of the test compound mixed with 10 ml of sterilized Brain Heart Infusion agar (Difco 0418-01-5) are prepared. Each plate is inoculated with 1:100 (or 1:10 for slow-growing strains, primarily Micrococcus and Streptococcus) dilutions of up to 32 different microorganisms, using a Steers replicator block. The inoculated plates are incubated at 35°-37° C. for 20-24 hours. In addition, a control plate, using BHI agar containing no test compound, is prepared and incubated at the beginning and end of each test.
(§2) An additional plate containing a compound having known susceptibility patterns for the organisms being tested and belonging to the same antibiotic class as the test compound is also prepared and incubated as a further control, as well as to provide test-to-test comparability.
(§3) After incubation, each disk is read. The MIC is defined as the lowest concentration of drug yielding no growth, a slight haze, or sparsely isolated colonies on the inoculum spot as compared to the growth control.

Pseudomonas aeruginosa = assay: antimicrobial spectrum, agar dilution MIC; assay type: cell-based; conditions: Pseudomonas aeruginosa, BHI agar, 20-24 hours
Experimental: as §1, §2, §3

Strep. bovis = assay: antimicrobial spectrum, agar dilution MIC; assay type: cell-based; conditions: Streptococcus equinus, strain A5169; BHI agar, 20-24 hours
Experimental: as §1, §2, §3

Strep. faecium = assay: antimicrobial spectrum, agar dilution MIC; assay type: cell-based; conditions: Enterococcus faecium
Experimental: as §1, §2, §3

Staph. aureus = assay: antimicrobial spectrum, agar dilution MIC; assay type: cell-based; conditions: Staphylococcus aureus, BHI agar, 20-24 hours
Experimental: as §1, §2, §3

Staph. epidermidis = assay: antimicrobial spectrum, agar dilution MIC; assay type: cell-based; conditions: Staphylococcus epidermidis
Experimental: as §1, §2, §3

Strep. agalactiae = assay: antimicrobial spectrum, agar dilution MIC; assay type: cell-based; conditions: Streptococcus agalactiae, strain CMX 508; BHI agar, 20-24 hours
Experimental: as §1, §2, §3

Providencia stuartii = assay: antimicrobial spectrum, agar dilution MIC; assay type: cell-based; conditions: strain CMX 640, BHI agar, 20-24 hours
Experimental: as §1, §2, §3

Micrococcus luteus = assay: antimicrobial spectrum, agar dilution MIC; assay type: cell-based; conditions: 20-24 hours
E. coli = assay: antimicrobial spectrum, agar dilution MIC; assay type: cell-based; conditions: Escherichia coli, BHI agar, 20-24 hours
Acinetobacter SP = assay: antimicrobial spectrum, agar dilution MIC; assay type: cell-based; conditions: strain CMX 669, BHI agar, 20-24 hours
Ent. aerogenes = assay: antimicrobial spectrum, agar dilution MIC; assay type: cell-based; conditions: Klebsiella aerogenes, BHI agar, 20-24 hours
Pseudomonas cepacia = assay: antimicrobial spectrum, agar dilution MIC; assay type: cell-based; conditions: Burkholderia cepacia, strain 2961; BHI agar, 20-24 hours; read-out: MIC
Experimental: (§4) Erythromycin A was used for this purpose.
(§5) After incubation, each disk is read.

[1] = system: gut contractions (stomach, duodenum, jejunum); conditions: dog, in vivo, iv, 4 mg/kg
Experimental: Compounds of this invention have been tested for gastrointestinal stimulating activity in a dog model at 4 mg/kg intravenously. Contractions in the gut were recorded with surgically implanted strain gauges. […] Ratios were calculated for the stomach, duodenum and jejunum, and a final arithmetic mean index was calculated and reported in Table 1.

Haemophilus influenzae = assay: MIC against strains of Haemophilus influenzae; assay type: cell-based; conditions: Haemophilus influenzae, read-out: MIC
Experimental: as §4, §5
In the manner of Example 23, the efficacy of compounds of this invention were tested against numerous strains of Haemophilus influenzae.

gastointestinal motility = assay: gastrointestinal motility in sensitive animal models (general statement); assay type: in vivo; conditions: compared with parent erythromycin compound
[2] = strain 3519 RARI, BHI agar, 20-24 hours

SMILES | MIC (Klebsiella pneumoniae) [µg/mL] | MIC (Lactobacillus Casei) [µg/mL] | MIC (Strep. pyogenes; strain 930) [µg/mL] | MIC (Strep. pyogenes; strain EES61) [µg/mL] | MIC (Pseudomonas aeruginosa; strain 5007) [µg/mL] | MIC (Pseudomonas aeruginosa; strain BMH10) [µg/mL] | MIC (Pseudomonas aeruginosa; strain K799/WT) [µg/mL] | MIC (Strep. bovis) [µg/mL] | MIC (Staph. aureus; ATCC6538P, strain ATCC 6538P) [µg/mL] | MIC (Staph. aureus; strain 45) [µg/mL] | MIC (Staph. aureus; strain 45 RAR 2) [µg/mL] | MIC (Staph. aureus; strain A5177) [µg/mL] | MIC (Staph. aureus; strain CMX 686B) [µg/mL] | MIC (Staph. epidermidis; [2]) [µg/mL] | MIC (Strep. agalactiae) [µg/mL] | MIC (Providencia stuartii) [µg/mL] | MIC (Micrococcus luteus; strain 9341, BHI agar) [µg/mL] | MIC (E. coli; strain DC-2) [µg/mL] | MIC (E. coli; strain H560) [µg/mL] | MIC (E. coli; strain JUHL) [µg/mL] | other results
CC[C@H]1OC(=O)[C@H](C)[C@@H](O[C@H]2C[C@@](C)(OC)[C@@H](O)[C@H](C)O2)[C@H](C)[C@@H](O[C@@H]2O[C@H](C)C[C@H](N(C)C)[C@H]2O)[C@](C)(OC)C[C@@H](C)C(=O)[C@H](C)[C@H]2N(C)C(=O)O[C@]12C [Example 4, 11-deoxy-6-O-methyl erythromycin A 11,12-(N-methyl)cyclic carbamate] | 50 (≈ 63.5 µM) | 0.01 (≈ 0.0127 µM) | > 100 | 0.01 (≈ 0.0127 µM) | 100 (≈ 127 µM) | 50 (≈ 63.5 µM) | 100 (≈ 127 µM) | 0.02 (≈ 0.0254 µM) | 0.1 (≈ 0.127 µM) | 0.1 (≈ 0.127 µM) | 0.2 (≈ 0.254 µM) | 0.39 (≈ 0.496 µM) | 0.1 (≈ 0.127 µM) | 0.2 (≈ 0.254 µM) | 0.02 (≈ 0.0254 µM) | > 100 | 0.01 (≈ 0.0127 µM) | 25 (≈ 31.8 µM) | 12.5 (≈ 15.9 µM) | 25 (≈ 31.8 µM) | MIC (Pseudomonas aeruginosa; strain K799/61, read-out: MIC): 0.78 µg/mL (≈ 0.991 µM); MIC (Strep. faecium; ATCC8043, strain ATCC 8043, BHI agar, 20-24 hours): 0.05 µg/mL (≈ 0.0635 µM); MIC (Staph. epidermidis; strain 3519, BHI agar, 20-24 hours): 0.2 µg/mL (≈ 0.254 µM); MIC (Micrococcus luteus; strain 4698, BHI agar): 0.05 µg/mL (≈ 0.0635 µM); MIC (E. coli; strain KNK 437): 50 µg/mL (≈ 63.5 µM); MIC (E. coli; strain SS): 0.1 µg/mL (≈ 0.127 µM); MIC (Acinetobacter SP): 12.5 µg/mL (≈ 15.9 µM); MIC (Ent. aerogenes; ATCC10348, strain ATCC 10348): 50 µg/mL (≈ 63.5 µM); MIC (Pseudomonas cepacia): 100 µg/mL (≈ 127 µM); Gastrointestinal Motility Index [1]: 1.27
CC[C@H]1OC(=O)[C@H](C)[C@@H](O[C@H]2C[C@@](C)(OC)[C@@H](O)[C@H](C)O2)[C@H](C)[C@@H](O[C@@H]2O[C@H](C)C[C@H](N(C)C)[C@H]2O)[C@](C)(OC)C[C@@H](C)C(=O)[C@H](C)[C@H]2N(Cc3ccccc3)C(=O)O[C@]12C [Example 3, 11-deoxy-6-O-methyl erythromycin A 11,12-(N-benzyl)cyclic carbamate] | 25 (≈ 29 µM) | 0.05 (≈ 0.0579 µM) | 100 (≈ 116 µM) | 0.02 (≈ 0.0232 µM) | > 100 | 25 (≈ 29 µM) | > 100 | 0.02 (≈ 0.0232 µM) | 0.39 (≈ 0.452 µM) | 0.1 (≈ 0.116 µM) | 0.39 (≈ 0.452 µM) | 0.78 (≈ 0.904 µM) | 0.39 (≈ 0.452 µM) | 0.2 (≈ 0.232 µM) | 0.02 (≈ 0.0232 µM) | > 100 | 0.05 (≈ 0.0579 µM) | 25 (≈ 29 µM) | 6.2 (≈ 7.18 µM) | 25 (≈ 29 µM) | MIC (Pseudomonas aeruginosa; strain K799/61): 3.1 µg/mL (≈ 3.59 µM); MIC (Strep. faecium; ATCC8043): 0.1 µg/mL (≈ 0.116 µM); MIC (Staph. epidermidis): 0.2 µg/mL (≈ 0.232 µM); MIC (E. coli; strain KNK 437): 25 µg/mL (≈ 29 µM); MIC (E. coli; strain SS): 0.39 µg/mL (≈ 0.452 µM); MIC (Acinetobacter SP): 50 µg/mL (≈ 57.9 µM); MIC (Ent. aerogenes; ATCC13048, strain ATCC 13048, read-out: MIC): 50 µg/mL (≈ 57.9 µM); MIC (Pseudomonas cepacia): 50 µg/mL (≈ 57.9 µM)
CC[C@H]1OC(=O)[C@H](C)[C@@H](O[C@H]2C[C@@](C)(OC)[C@@H](O)[C@H](C)O2)[C@H](C)[C@@H](O[C@@H]2O[C@H](C)C[C@H](N(C)C)[C@H]2O)[C@](C)(OC)C[C@@H](C)C(=O)[C@H](C)[C@H]2N(CCN(C)C)C(=O)O[C@]12C [Example 9, 11-deoxy-6-O-methyl erythromycin A 11,12-[N-(2-dimethylamino)ethyl]cyclic carbamate] |  |  |  |  |  |  |  |  |  |  |  |  |  |  |  |  |  |  |  |  | MIC (Haemophilus influenzae; ATCC9006, strain ATCC 9006): 0.25 µg/mL (≈ 0.296 µM); MIC (Haemophilus influenzae; ATCC9795, strain ATCC 9795): 0.25 µg/mL (≈ 0.296 µM); MIC (Haemophilus influenzae; ATCC10211, strain ATCC 10211): 0.5 µg/mL (≈ 0.592 µM); MIC (Haemophilus influenzae; ATCC19418, strain ATCC 19418): 0.5 µg/mL (≈ 0.592 µM); MIC (Haemophilus influenzae; strain 504): 1 µg/mL (≈ 1.18 µM); MIC (Haemophilus influenzae; strain 519A): 0.5 µg/mL (≈ 0.592 µM); MIC (Haemophilus influenzae; strain 566A): 0.5 µg/mL (≈ 0.592 µM); MIC (Haemophilus influenzae; strain 588A): 0.25 µg/mL (≈ 0.296 µM); MIC (Haemophilus influenzae; strain 632A): 0.5 µg/mL (≈ 0.592 µM); MIC (Haemophilus influenzae; strain 667A): 0.25 µg/mL (≈ 0.296 µM); MIC (Haemophilus influenzae; strain 747C): 0.25 µg/mL (≈ 0.296 µM); MIC (Haemophilus influenzae; strain 751): 0.25 µg/mL (≈ 0.296 µM); MIC (Haemophilus influenzae; strain 1177): 0.5 µg/mL (≈ 0.592 µM); MIC (Haemophilus influenzae; strain 1435): 0.12 µg/mL (≈ 0.142 µM); MIC (Haemophilus influenzae; strain 5036B): 0.5 µg/mL (≈ 0.592 µM); MIC (Haemophilus influenzae; strain DILL AMP R): 0.25 µg/mL (≈ 0.296 µM); MIC (Haemophilus influenzae; strain SOL AMP R): 0.25 µg/mL (≈ 0.296 µM); MIC (Haemophilus influenzae; strain SPK AMP R): 0.25 µg/mL (≈ 0.296 µM); gastointestinal motility and associated side-effects (gastointestinal motility): much less gastointestinal motility and associated side-effects than the parent erythromycin compound; Gastrointestinal Motility Index [1]: .013

Source: patent publication US4742049A, “Semisynthetic erythromycin antibiotics” (Abbott Laboratories, priority 1986, dated 1988)
